From publication PMC3978654, “Surface plasmon resonance using the catalytic domain of soluble guanylate cyclase allows the detection of enzyme activators^” (Bioorganic & Medicinal Chemistry Letters, 2014)

How the values were obtained:
[1] = molecular target: T1, soluble guanylate cyclase α1β1 (sGC) (Homo sapiens, UniProt Q02108+Q02153); assay: SPR (Biacore T200), concentration series; assay type: binding
T1 construct: gene GUCY1B1; α1β1 catalytic domain (sGCcat); with sGC α1 subunit (GUCY1A1)
T1 sequence (Q02153 408-619 limits assumed): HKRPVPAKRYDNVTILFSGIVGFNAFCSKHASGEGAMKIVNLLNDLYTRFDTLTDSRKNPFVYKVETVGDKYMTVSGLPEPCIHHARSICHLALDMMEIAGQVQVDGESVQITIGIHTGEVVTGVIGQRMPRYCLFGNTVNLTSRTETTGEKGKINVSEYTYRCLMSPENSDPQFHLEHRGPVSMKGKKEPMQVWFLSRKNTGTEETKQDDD
T1 sequence (Q02108 467-690): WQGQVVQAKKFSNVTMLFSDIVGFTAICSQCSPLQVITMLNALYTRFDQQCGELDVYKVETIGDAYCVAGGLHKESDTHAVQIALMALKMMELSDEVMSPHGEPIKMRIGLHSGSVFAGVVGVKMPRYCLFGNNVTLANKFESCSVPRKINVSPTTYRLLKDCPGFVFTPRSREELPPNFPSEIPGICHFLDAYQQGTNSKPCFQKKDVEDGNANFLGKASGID

[2] = molecular target: T2, soluble guanylate cyclase α1β1 (sGC) (Homo sapiens, UniProt Q02153); assay: SPR (Biacore T200) at […]; assay type: binding
T2 construct: gene GUCY1B1; full length sGC; with sGC α1 subunit (GUCY1A1)
T2 sequence (Q02153 1-619): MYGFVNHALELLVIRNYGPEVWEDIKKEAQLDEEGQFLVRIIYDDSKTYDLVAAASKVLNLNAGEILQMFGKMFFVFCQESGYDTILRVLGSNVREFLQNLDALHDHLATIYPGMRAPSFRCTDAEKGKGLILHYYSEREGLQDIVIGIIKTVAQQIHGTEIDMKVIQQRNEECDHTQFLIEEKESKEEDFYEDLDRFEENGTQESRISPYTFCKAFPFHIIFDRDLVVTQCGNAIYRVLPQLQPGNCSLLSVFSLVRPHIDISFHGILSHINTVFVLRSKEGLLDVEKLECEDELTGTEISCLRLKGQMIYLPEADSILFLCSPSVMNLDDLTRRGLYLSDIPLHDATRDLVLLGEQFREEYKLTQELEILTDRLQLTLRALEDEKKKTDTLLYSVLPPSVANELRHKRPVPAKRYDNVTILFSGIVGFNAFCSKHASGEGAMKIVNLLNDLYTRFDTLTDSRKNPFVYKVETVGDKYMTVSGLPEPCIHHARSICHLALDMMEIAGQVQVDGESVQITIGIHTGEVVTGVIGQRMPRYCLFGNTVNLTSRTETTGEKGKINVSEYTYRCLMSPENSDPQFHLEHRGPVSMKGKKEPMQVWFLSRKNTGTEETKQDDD
T2 sequence (Q02108 1-690 partner): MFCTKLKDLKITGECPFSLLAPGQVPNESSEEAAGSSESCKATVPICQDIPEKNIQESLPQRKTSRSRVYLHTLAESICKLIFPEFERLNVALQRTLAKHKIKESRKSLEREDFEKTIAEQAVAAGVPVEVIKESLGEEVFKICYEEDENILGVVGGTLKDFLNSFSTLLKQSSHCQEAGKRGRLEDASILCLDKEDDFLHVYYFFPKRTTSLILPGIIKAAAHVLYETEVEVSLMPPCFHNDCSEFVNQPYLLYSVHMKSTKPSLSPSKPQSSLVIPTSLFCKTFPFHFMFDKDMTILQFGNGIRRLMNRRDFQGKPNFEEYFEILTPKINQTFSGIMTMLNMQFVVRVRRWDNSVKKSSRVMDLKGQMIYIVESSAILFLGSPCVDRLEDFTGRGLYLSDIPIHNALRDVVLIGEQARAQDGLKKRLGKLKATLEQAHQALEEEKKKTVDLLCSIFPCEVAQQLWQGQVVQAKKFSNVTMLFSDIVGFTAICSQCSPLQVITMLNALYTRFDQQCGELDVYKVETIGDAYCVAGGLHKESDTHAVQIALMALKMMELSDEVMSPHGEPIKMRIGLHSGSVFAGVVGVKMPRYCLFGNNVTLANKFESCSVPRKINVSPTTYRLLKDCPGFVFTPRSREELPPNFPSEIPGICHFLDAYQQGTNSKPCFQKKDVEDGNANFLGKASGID

Kd [1]	SMILES	SPR (Biacore T200) at 100 μM [2]
326 µM	Nc1nc2c(ncn2[C@@H]2O[C@H](COP(=O)(O)OP(=O)(O)OP(=O)(O)O)[C@@H](O)[C@H]2O)c(=O)[nH]1 [GTP]	–
–	O=C(O)CCCCN(CCc1ccccc1OCc1ccc(CCc2ccccc2)cc1)Cc1ccc(C(=O)O)cc1 [compound 1, BAY 58-2667]	showed strong binding to the full length sGC and only non-specific binding to sGCcat
